Converted amounts (≈) assume the structure as drawn. Like-named read-outs stand apart in the source and are kept apart here.
How the values were obtained:
[1] = Solubility of Compound 1 in pH 4 buffer (24 h shaking, HPLC); assay type: physicochemical; conditions: aqueous buffer, thermodynamic from solid, ambient temperature
Procedure: The solubility of the active drug, Compound 1, was determined in a separate experiment in which an excess of the compound was added to pH 4 buffer. The mixture was shaken with a Burrell wrist action shaker at ambient temperature for 24 hours. Excess solute was removed by centrifugation, the supernatant was diluted with a suitable solvent, and the concentration of the compound was measured using HPLC. The solubility of Compound 1 at pH 4 was 0.007 mg/mL.

S. aureus Smith = experiment: Mouse Systemic Lethal Infection Model; assay type: in vivo; conditions: Staphylococcus aureus, female Swiss Webster mice, infected intraperitoneally, three day survival, prodrug ED50 normalized to content of Compound 1
Procedure: Female Swiss Webster mice weighing between 20-25 g were infected intraperitoneally with approximately 5×10^5 colony forming units (CFU) S. aureus Smith in 7% mucin. One hour later, the animals were given prodrug or Compound 1 intravenously or orally in a dose volume of 0.1 mL/10 g body weight. Each group consisted of eight animals. The prodrugs were prepared immediately before dosing in 40 mM sodium citrate buffer, pH 4. Compound 1 was prepared in 20% HPβCD and warmed until dissolved (IV dosing) or in 0.5% methocel (PO dosing) as a suspension. The mice were observed over a three day period and ED50 values were calculated from the resulting % survival curves (Table 2). The term “ND” means not determined. The prodrug ED50 values were normalized to the content of Compound 1.

[2] = Pharmacokinetics of Prodrugs in Animal Models, all species tested (summary); assay type: in vivo, mice, rats, or dogs; conditions: for PK parameters, normalized to the dose, compared with the respective parameters for Compound 1: all species tested (Table 3a-3d); for conversion of the prodrug form in vivo: all species tested, inferred from PK parameters
Procedure: Animals were weighed and given the prodrug intravenously (mice, rats, or dogs) or orally (mice). The prodrugs were prepared immediately before dosing in 40 mM sodium citrate buffer, pH 4. Compound 1 was prepared in 20% HPβCD and warmed until dissolved (IV dosing), or in 0.5% methocel as a suspension (PO dosing). At 0, 0.08, 0.25, 0.5, 1, 2, 4, 6, 8, and 24 hours, blood was removed (via cardiac puncture in euthanized mice, via orbital sinus puncture in anesthetized rats, or via cephalic vein in conscious dogs) and 200 µL of the plasma supernatant was immediately frozen (−70° C.).
On the day of analysis, the samples were thawed on ice and 100 μL was diluted with 200 μL of acetonitrile. The samples were vortexed and then centrifuged at 3000×g for 5 minutes to pellet the precipitated plasma proteins. The supernatant was analyzed by HPLC, or by LC-MS-MS. A standard curve was constructed by spiking a known quantity of Compound 1 into plasma and then performing serial dilutions in the range of 0.01 to 10 μg/mL. Pharmacokinetic (PK) parameters were calculated by WinNonlin Pro, version 3.1.
The term “ND” means not determined. The term “NA” means not applicable. The dose of each prodrug was normalized to the Compound 1 dose. The values of the PK parameters for the prodrug form for Compounds 4a and 21a are based on the resulting accumulation and elimination of Compound 1.

[3] = Prodrug Solubility (visual inspection in buffer); assay type: physicochemical; conditions: aqueous buffer, thermodynamic from solid
Procedure: One mg of each compound was diluted with at least 100 μl of the designated buffer, vortexed vigorously for approximately 1 minute, and visually inspected. Sodium citrate (40 mM) was buffered to pH 4 and phosphate-buffered saline was buffered to pH 7. Solutions with no remaining particles were recorded with a solubility ≧to the starting concentration. Compound suspensions were further diluted in 0.1 mL increments followed by vortexing as above, until the prodrug was dissolved. Solubilities of prodrugs ranged from 1.0 mg/ml to >10 mg/ml. The term “ND” means not determined.

[4] = 40 mM sodium citrate buffer, Sodium citrate (40 mM) pH 4, read-out: Solubility Sodium Citrate
[5] = phosphate-buffered saline pH 7, read-out: Solubility Saline

| solubility at 1 min [3, 4] [µg/mL] | solubility at 1 min [3, 5] [µg/mL] | Compound | also measured |
| --- | --- | --- | --- |
| – | – | CC(=O)NC[C@H]1CN(c2ccc(N3Cc4cn(C)nc4C3)c(F)c2)C(=O)O1 [Compound 1] | solubility at 24 h [1]: 7 µg/mL (≈ 0.0187 mM); ED50 (S. aureus Smith; dosed intravenously one hour later, read-out: ED50 (95% Fiducial Limits) IV): 3.3 mg/kg; ED50 (S. aureus Smith; dosed orally one hour later, read-out: ED50 (95% Fiducial Limits) PO): 3.5 mg/kg |
| ≥ 10000 | ≥ 10000 | CC(=O)N(C[C@H]1CN(c2ccc(N3Cc4cn(C)nc4C3)c(F)c2)C(=O)O1)C(=O)OCOC(=O)CN1CCNCC1 [Compound 4a, Piperazin-1-yl-acetic acid (acetyl-{(R)-3-[3-fluoro-4-(2-methyl-2,6-dihydro-4H-pyrrolo[3,4-c]pyrazol-5-yl)-phenyl]-2-oxo-oxazolidin-5-ylmethyl}-carbamoyloxy)-methyl ester] | PK parameters, normalized to the dose, compared with the respective parameters for Compound 1 [2]: similar; conversion of the prodrug form in vivo [2]: rapidly converted in vivo to Compound 1 |
| ≥ 7500 | – | CC(=O)N(C[C@H]1CN(c2ccc(N3Cc4cn(C)nc4C3)c(F)c2)C(=O)O1)C(=O)OC(C)OC(=O)CN1CCNCC1 (stereo partly drawn) [Compound 4b, Piperazin-1-yl-acetic acid 1-(acetyl-{(R)-3-[3-fluoro-4-(2-methyl-2,6-dihydro-4H-pyrrolo[3,4-c]pyrazol-5-yl)-phenyl]-2-oxo-oxazolidin-5-ylmethyl}-carbamoyloxy)-ethyl ester] | – |
| ≥ 10000 | ≥ 10000 | CC(=O)N(C[C@H]1CN(c2ccc(N3Cc4cn(C)nc4C3)c(F)c2)C(=O)O1)C(=O)OCOC(=O)CN(C)C [Compound 5, Dimethylamino-acetic acid (acetyl-{(R)-3-[3-fluoro-4-(2-methyl-2,6-dihydro-4H-pyrrolo[3,4-c]pyrazol-5-yl)-phenyl]-2-oxo-oxazolidin-5-ylmethyl}-carbamoyloxy)-methyl ester] | – |
| 2500 (≈ 4.35 mM) | 1000 (≈ 1.74 mM) | CC(=O)N(C[C@H]1CN(c2ccc(N3Cc4cn(C)nc4C3)c(F)c2)C(=O)O1)C(=O)OCOC(=O)CN1CCOCC1 [Compound 6, Morpholin-4-yl-acetic acid (acetyl-{(R)-3-[3-fluoro-4-(2-methyl-2,6-dihydro-4H-pyrrolo[3,4-c]pyrazol-5-yl)-phenyl]-2-oxo-oxazolidin-5-ylmethyl}-carbamoyloxy)-methyl ester] | – |
| ≥ 10000 | ≥ 10000 | CC(=O)N(C[C@H]1CN(c2ccc(N3Cc4cn(C)nc4C3)c(F)c2)C(=O)O1)C(=O)OCOC(=O)CN1CCN(C)CC1 [Compound 8, (4-Methyl-piperazin-1-yl)-acetic acid (acetyl-{(R)-3-[3-fluoro-4-(2-methyl-2,6-dihydro-4H-pyrrolo[3,4-c]pyrazol-5-yl)-phenyl]-2-oxo-oxazolidin-5-ylmethyl}-carbamoyloxy)-methyl ester] | – |
| ≥ 10000 | ≥ 10000 | CNCC(=O)OCOC(=O)N(C[C@H]1CN(c2ccc(N3Cc4cn(C)nc4C3)c(F)c2)C(=O)O1)C(C)=O [Compound 10, Methylamino-acetic acid (acetyl-{(R)-3-[3-fluoro-4-(2-methyl-2,6-dihydro-4H-pyrrolo[3,4-c]pyrazol-5-yl)-phenyl]-2-oxo-oxazolidin-5-ylmethyl}-carbamoyloxy)-methyl ester] | – |
| ≥ 2000 | ≥ 2000 | CC(=O)N(C[C@H]1CN(c2ccc(N3Cc4cn(C)nc4C3)c(F)c2)C(=O)O1)C(=O)OCOP(=O)(O)O [Compound 18a, Acetyl-{(R)-3-[3-fluoro-4-(2-methyl-2,6-dihydro-4H-pyrrolo[3,4-c]pyrazol-5-yl)-phenyl]-2-oxo-oxazolidin-5-ylmethyl}-carbamic acid phosphonooxymethyl ester] | – |
| ≥ 5000 | – | CC(=O)N(C[C@H]1CN(c2ccc(N3Cc4cn(C)nc4C3)c(F)c2)C(=O)O1)C(=O)OCOC(=O)COP(=O)(O)O [Compound 24, Phosphonooxy-acetic acid (acetyl-{(R)-3-[3-fluoro-4-(2-methyl-2,6-dihydro-4H-pyrrolo[3,4-c]pyrazol-5-yl)-phenyl]-2-oxo-oxazolidin-5-ylmethyl}-carbamoyloxy)-methyl ester] | – |

| Compound | solubility at 1 min [3, 4] [µg/mL] | solubility at 1 min [3, 5] [µg/mL] | also measured |
| --- | --- | --- | --- |
| CCOP(=O)(O)OCOC(=O)N(C[C@H]1CN(c2ccc(N3Cc4cn(C)nc4C3)c(F)c2)C(=O)O1)C(C)=O [Compound 21a, Acetyl-{(R)-3-[3-fluoro-4-(2-methyl-2,6-dihydro-4H-pyrrolo[3,4-c]pyrazol-5-yl)-phenyl]-2-oxo-oxazolidin-5-ylmethyl}-carbamic acid ethoxy-hydroxy-phosphoryloxymethyl ester] | – | ≥ 10000 | PK parameters, normalized to the dose, compared with the respective parameters for Compound 1 [2]: similar; conversion of the prodrug form in vivo [2]: rapidly converted in vivo to Compound 1; solubility at 1 min ([3]; Sodium citrate (40 mM) pH 4, read-out: Solubility Sodium Citrate): ≥ 10000 µg/mL |
